Measured values reported in patent US9339668B2, “Extract of aerial parts of oats harvested before ear emergence” (priority 2008, dated 2016).

Test system: Prostaglandin PG6KF1α production in stimulated human keratinocyte
Experiment: Production of prostaglandin PG6KF1α induced at the keratinocyte by calcium ionophore A23187
Assay type: cell-based
Conditions: 10 μg/ml
Description: Principle: The keratinocyte, the most represented cell at the epidermis, plays a significant role in initiating and modulating inflammatory reactions of the skin. With the model it is possible to determine in vitro the capabilities of various molecules of modulating the production of mediators stemming from the metabolism of arachidonic acid. Prostaglandin PG6KF1α is a stable metabolite of prostacyclin PGI2, a major metabolite produced by the stimulated human keratinocyte. An acetone extract of aerial parts of oats harvested before ear emergence and its fractions were evaluated on the production of this prostaglandin induced at the keratinocyte by the calcium ionophore A23187 (stimulating the cascade of arachidonic acid).

Compound: O=c1cc(-c2ccc(O)c(O)c2)oc2cc(O)c([C@@H]3O[C@H](CO)[C@@H](O)[C@H](O)[C@H]3OC3OC[C@@H](O)[C@@H](O)[C@@H]3O)c(O)c12 (stereo partly shown) [isoorientin-2″-O-arabinosyl]
- inhibition of PG6KF1α production: 55%
